Measured values taken from ChEMBL document CHEMBL4411303, “Synthesis of tetrazole derivatives bearing pyrrolidine scaffold and evaluation of their antifungal activity against Candida albicans” (Eur J Med Chem, 2019).
Converted amounts (≈) assume the structure as drawn. The source made the active and inactive calls. No cut-off for these calls is given here.

What was measured:
Candida albicans [1] = experiment: Antibiofilm activity against Candida albicans ATCC 90028 assessed as inhibition of biofilm formation […] after 24 hrs by XTT assay relative to control; type: functional, organism-based; conditions: ATCC 90028, 24 h
Candida albicans [2] = experiment: Antifungal activity against Candida albicans ATCC 90028 assessed as planktonic growth inhibition at 0.27 uM after 48 hrs by M27-A3 protocol based method relative to control; type: functional; conditions: ATCC 90028, 48 h, read-out: GI
Candida albicans [3] = experiment: Antifungal activity against Candida albicans ATCC 90028 assessed as reduction in cell growth after 48 to 72 hrs by M27-A3 protocol based method; type: functional
[4] = Toxicity in Galleria mellonella larvae assessed as cocoon formation at 41.47 uM measured after 48 hrs (reference value: 85 +/- 5%)
Candida albicans [5] = experiment: Induction of Candida albicans ATCC 90028 internalization in mouse RAW264.7 cells assessed as reduction in fungus-induced cell damage by measuring live and early apoptotic cells at 41.47 uM after 2 hrs acridine orange/ethidium bromide staining based confocal scanning microscopic analysis; type: functional, organism-based
Candida albicans [6] = experiment: Antifungal activity against Candida albicans ATCC 90028 assessed as planktonic growth inhibition at 5.18 uM after 48 hrs by M27-A3 protocol based method relative to control; type: functional; conditions: ATCC 90028, 48 h, read-out: GI
Candida albicans [7] = experiment: Antifungal activity against Candida albicans ATCC 90028 assessed as reduction in cell growth after 48 to 72 hrs in presence of ergosterol by M27-A3 protocol based method; type: functional
Candida albicans [8] = experiment: Cell cycle arrest in Candida albicans ATCC 90028 assessed as accumulation at G0/G1-phase by propidium iodide staining based flow cytometry; type: functional, organism-based
Candida albicans [9] = experiment: Antifungal activity against Candida albicans ATCC 90028 assessed as planktonic growth inhibition at 0.08 uM after 48 hrs by M27-A3 protocol based method relative to control; type: functional; conditions: ATCC 90028, 48 h, read-out: GI
Candida albicans [10] = experiment: Antifungal activity against Candida albicans ATCC 90028 assessed as planktonic growth inhibition at 10.37 uM after 48 hrs by M27-A3 protocol based method relative to control; type: functional; conditions: ATCC 90028, 48 h, read-out: GI
Candida albicans [11] = experiment: Antifungal activity against Candida albicans ATCC 90028 assessed as planktonic growth inhibition at 41.47 uM after 48 hrs by M27-A3 protocol based method relative to control; type: functional; conditions: ATCC 90028, 48 h, read-out: GI
Candida albicans [12] = experiment: Antifungal activity against Candida albicans ATCC 90028 assessed as planktonic growth inhibition at 20.73 uM after 48 hrs by M27-A3 protocol based method relative to control; type: functional; conditions: ATCC 90028, 48 h, read-out: GI
[13] = Toxicity in Galleria mellonella larvae assessed as movement melanization at 41.47 uM measured after 128 hrs (reference value: 0%)
Candida albicans [14] = experiment: Antibiofilm activity against Candida albicans ATCC 90028 assessed as inhibition of biofilm formation after 24 hrs by XTT assay; type: functional, organism-based; conditions: ATCC 90028, 24 h
[15] = Toxicity in Galleria mellonella larvae assessed as survival rate at 41.47 uM measured after 120 hrs (reference value: 100%)
[16] = Toxicity in Galleria mellonella larvae assessed as cocoon formation at 41.47 uM measured after 18 hrs (reference value: 60 +/- 20%)
Candida albicans [17] = experiment: Antifungal activity against Candida albicans ATCC 90028 assessed as planktonic growth inhibition at 0.16 uM after 48 hrs by M27-A3 protocol based method relative to control; type: functional; conditions: ATCC 90028, 48 h, read-out: GI
[18] = Toxicity in Galleria mellonella larvae assessed as survival rate at 41.47 uM measured after 48 hrs (reference value: 100%)
[19] = Toxicity in Galleria mellonella larvae assessed as survival rate at 41.47 uM measured after 18 hrs (reference value: 100%)
Candida albicans [20] = experiment: Antifungal activity against Candida albicans ATCC 90028 assessed as planktonic growth inhibition at 0.32 uM after 48 hrs by M27-A3 protocol based method relative to control; type: functional; conditions: ATCC 90028, 48 h, read-out: GI
Candida albicans [21] = experiment: Inhibition of Candida albicans ATCC 90028 cell adhesion to human TR146 cells at reduction in cell adherence at 41.47 uM relative to control; type: functional; conditions: ATCC 90028, TR146
Candida albicans [22] = experiment: Antifungal activity against Candida albicans ATCC 90028 assessed as planktonic growth inhibition at 1.3 uM after 48 hrs by M27-A3 protocol based method relative to control; type: functional; conditions: ATCC 90028, 48 h, read-out: GI
Candida albicans [23] = experiment: Induction of reactive oxygen species generation in Candida albicans ATCC 90028 assessed as ROS level at 41.47 uM after 18 hrs by DCFDA probe based flow cytometry (reference value: 0.3%); type: functional
Candida albicans [24] = experiment: Fungicidal activity against Candida albicans ATCC 90028 assessed as log reduction in fungal load incubated for 48 hrs followed by replating on sabouraud dextrose agar plate and measured after 48 hrs; type: functional
Candida albicans [25] = experiment: Antifungal activity against Candida albicans ATCC 90028 assessed as planktonic growth inhibition at 2.59 uM after 48 hrs by M27-A3 protocol based method relative to control; type: functional; conditions: ATCC 90028, 48 h, read-out: GI
[26] = Selectivity index, ratio of CC50 for African green monkey Vero cells to IC50 for Candida albicans ATCC 90028; type: toxicity; conditions: read-out: Ratio CC50/IC50
[27] = Toxicity in Galleria mellonella larvae assessed as cocoon formation at 41.47 uM measured after 48 hrs (reference value: 100 +/- 0%)
Candida albicans [28] = experiment: Antifungal activity against Candida albicans ATCC 90028 assessed as planktonic growth inhibition at 0.65 uM after 48 hrs by M27-A3 protocol based method relative to control; type: functional; conditions: ATCC 90028, 48 h, read-out: GI
[29] = Toxicity in Galleria mellonella larvae assessed as movement melanization at 41.47 uM measured after 48 hrs (reference value: 0%)
[30] = Toxicity in Galleria mellonella larvae assessed as movement melanization at 41.47 uM measured after 18 hrs (reference value: 0%)
Candida albicans [31] = experiment: Antifungal activity against Candida albicans ATCC 90028 assessed as planktonic growth inhibition at 1.38 uM after 48 hrs by M27-A3 protocol based method relative to control; type: functional; conditions: ATCC 90028, 48 h, read-out: GI
Candida albicans [32] = experiment: Antifungal activity against Candida albicans ATCC 90028 assessed as planktonic growth inhibition at 2.77 uM after 48 hrs by M27-A3 protocol based method relative to control; type: functional; conditions: ATCC 90028, 48 h, read-out: GI
Candida albicans [33] = experiment: Antifungal activity against Candida albicans ATCC 90028 assessed as planktonic growth inhibition at 0.09 uM after 48 hrs by M27-A3 protocol based method relative to control; type: functional; conditions: ATCC 90028, 48 h, read-out: GI
Candida albicans [34] = experiment: Antifungal activity against Candida albicans ATCC 90028 assessed as planktonic growth inhibition at 0.17 uM after 48 hrs by M27-A3 protocol based method relative to control; type: functional; conditions: ATCC 90028, 48 h, read-out: GI
Candida albicans [35] = experiment: Antifungal activity against Candida albicans ATCC 90028 assessed as planktonic growth inhibition at 5.53 uM after 48 hrs by M27-A3 protocol based method relative to control; type: functional; conditions: ATCC 90028, 48 h, read-out: GI
Candida albicans [36] = experiment: Antifungal activity against Candida albicans ATCC 90028 assessed as planktonic growth inhibition at 11.07 uM after 48 hrs by M27-A3 protocol based method relative to control; type: functional; conditions: ATCC 90028, 48 h, read-out: GI
Candida albicans [37] = experiment: Antifungal activity against Candida albicans ATCC 90028 assessed as planktonic growth inhibition at 22.13 uM after 48 hrs by M27-A3 protocol based method relative to control; type: functional; conditions: ATCC 90028, 48 h, read-out: GI
Candida albicans [38] = experiment: Antifungal activity against Candida albicans ATCC 90028 assessed as planktonic growth inhibition at 0.69 uM after 48 hrs by M27-A3 protocol based method relative to control; type: functional; conditions: ATCC 90028, 48 h, read-out: GI
Candida albicans [39] = experiment: Antifungal activity against Candida albicans ATCC 90028 assessed as planktonic growth inhibition at 44.26 uM after 48 hrs by M27-A3 protocol based method relative to control; type: functional; conditions: ATCC 90028, 48 h, read-out: GI
Candida albicans [40] = experiment: Antifungal activity against Candida albicans ATCC 90028 assessed as planktonic growth inhibition at 0.35 uM after 48 hrs by M27-A3 protocol based method relative to control; type: functional; conditions: ATCC 90028, 48 h, read-out: GI

SMILES: C[C@@H]1[C@H](O)[C@@H](C)/C=C/C=C/C=C/C=C/C=C/C=C/C=C/[C@H](O[C@@H]2O[C@H](C)[C@@H](O)[C@H](N)[C@@H]2O)C[C@@H]2O[C@](O)(C[C@@H](O)C[C@@H](O)[C@H](O)CC[C@@H](O)C[C@@H](O)CC(=O)O[C@H]1C)C[C@H](O)[C@H]2C(=O)O [AMPHOTERICIN B]
- IC50 (Candida albicans [1]): 100 µM
- inhibition of growth at 0.27 µM (Candida albicans [2]): 100%

SMILES: Fc1ccc(C2CCCN2CCCn2nnc(-c3ccc(Cl)cc3)n2)cc1 (configuration not stated)
- MIC (Candida albicans [3]): 10.4 µM (≈ 4 µg/mL)
- Activity [4]: 80%
- Activity (Candida albicans [5]): Active
- inhibition of growth at 5.18 µM (Candida albicans [6]): 99.4%
- MIC (Candida albicans [7]): 20.7 µM
- Activity (Candida albicans [8]): Active
- inhibition of growth at 0.08 µM (Candida albicans [9]): 99.4%
- inhibition of growth at 10.37 µM (Candida albicans [10]): 99.1%
- inhibition of growth at 41.47 µM (Candida albicans [11]): 99%
- inhibition of growth at 20.73 µM (Candida albicans [12]): 98.9%
- Activity [13]: 13%
- IC50 (Candida albicans [14]): 10.4 µM
- survival at 120 h, 41.47 µM [15]: 83%
- Activity [16]: 60%
- inhibition of growth at 0.16 µM (Candida albicans [17]): 99.4%
- survival at 48 h, 41.47 µM [18]: 100%
- survival at 18 h, 41.47 µM [19]: 100%
- inhibition of growth at 0.32 µM (Candida albicans [20]): 99.4%
- inhibition at 41.47 µM (Candida albicans [21]): > 95%
- inhibition of growth at 1.3 µM (Candida albicans [22]): 99.2%
- Activity (Candida albicans [23]): 12 - 16%
- log(activity) (Candida albicans [24]): -0.2
- inhibition of growth at 2.59 µM (Candida albicans [25]): 99.5%
- selectivity ratio [26]: 2
- Activity [27]: 80%
- inhibition of growth at 0.65 µM (Candida albicans [28]): 99.4%
- Activity [29]: 0%
- Activity [30]: 0%

SMILES: Fc1ccc(C2CCCN2CCCn2nnc(-c3ccccc3Cl)n2)cc1 (configuration not stated)
- inhibition of growth at 5.18 µM (Candida albicans [6]): 99.3%
- inhibition of growth at 0.08 µM (Candida albicans [9]): 98.6%
- inhibition of growth at 10.37 µM (Candida albicans [10]): 99.4%
- inhibition of growth at 41.47 µM (Candida albicans [11]): 99.6%
- inhibition of growth at 20.73 µM (Candida albicans [12]): 99.5%
- inhibition of growth at 0.16 µM (Candida albicans [17]): 98.7%
- inhibition of growth at 0.32 µM (Candida albicans [20]): 98.9%
- inhibition of growth at 1.3 µM (Candida albicans [22]): 99.2%
- log(activity) (Candida albicans [24]): -0.4
- inhibition of growth at 2.59 µM (Candida albicans [25]): 99.3%
- inhibition of growth at 0.65 µM (Candida albicans [28]): 99%

SMILES: Cc1ccc(-c2nnn(CCCN3CCCC3c3cccc(C)c3)n2)cc1 (configuration not stated)
- inhibition of growth at 1.38 µM (Candida albicans [31]): 98.9%
- inhibition of growth at 2.77 µM (Candida albicans [32]): 99.3%
- inhibition of growth at 0.09 µM (Candida albicans [33]): 98.9%
- inhibition of growth at 0.17 µM (Candida albicans [34]): 98.9%
- inhibition of growth at 5.53 µM (Candida albicans [35]): 99.1%
- inhibition of growth at 11.07 µM (Candida albicans [36]): 98.8%
- inhibition of growth at 22.13 µM (Candida albicans [37]): 98.7%
- inhibition of growth at 0.69 µM (Candida albicans [38]): 98.9%
- inhibition of growth at 44.26 µM (Candida albicans [39]): 99%
- log(activity) (Candida albicans [24]): -0.4
- inhibition of growth at 0.35 µM (Candida albicans [40]): 99%
